What is called IC50 is the point on the concentration scale where inhibition reaches its midpoint. A low value points to greater potency.

The text below walks through data of PMC9369610, “Pro-Apoptotic and Pro-Autophagic Properties of Cardenolides from Aerial Parts of Pergularia tomentosa” (Molecules, 2022).

The structures appear in SMILES notation.

In experiment [1] the test system is Caco-2 cells. Briefly: MTT cell viability assay, IC50 in Caco-2 cells. Format: cell-based. Particulars: Homo sapiens, 24 h, SE less than 10% of value. The method, then:
(§1) The human liver hepatocellular carcinoma cell line, HepG2, and the human adenocarcinoma of colon cell line, Caco-2, were cultured in Eagle’s Minimum Essential medium supplemented with 1% (v/v) non-essential amino acids, 0.2 mM L-glutamine, 50 units/mL penicillin, 50 μg/mL streptomycin and 10% (v/v) or 20% (v/v) fetal bovine serum (Sigma Aldrich, Milan, Italy) for HepG2 or Caco-2, respectively. The human embryonal lung fibroblast cell line, MRC5, was cultured in Dulbecco’s Modified Eagle medium (Sigma Aldrich, Milan, Italy) supplemented with 10% (v/v) fetal bovine serum, 0.2 mM L-glutamine, 50 units/mL penicillin and 50 μg/mL streptomycin. HUVEC cells were cultured in endothelial growth medium-2, supplemented with fetal bovine serum (2%), VEGF (0.1%), rH FGF-B (0.4%), rH EGF (0.1%), GA-1000 (0.1%), hydrocortisone (0.04%), R3-IGF-1 (0.1%), heparin (0.1%) and ascorbic acid (0.1%). Cells were maintained at 37 °C in a 5% CO2, 95% air-humidified atmosphere and passaged twice a week. Cell lines were obtained from Interlab Cell Line Collection, Istituto Nazionale per la Ricerca sul Cancro, Genoa, Italy. HUVEC were obtained from Lonza (Milan, Italy).
(§2) An MTT assay was used to analyse cell viability. Cells were seeded in 96 wells at the density of 2 × 10^4/cm^2 and, after 24 h, they were treated with P. tomentosa compounds or with the vehicle (DMSO). After a further 24 h of treatment, 0.5 mg/mL of MTT was added to the cell medium and incubated for 1.5 h at 37 °C. The resulting formazan crystals were dissolved in 100 μL of DMSO and absorbances were measured at 595 nm and 655 nm. The background signals at 655 nm were subtracted from 595 nm signals, and data were expressed as a percent of cell viability. The concentration of each compound that is required for 50% inhibition in vitro (IC50) was calculated as described in Husseini et al.. IC50 values were obtained for Caco-2, HepG2 and MRC5 cells by performing MTT assays with concentrations ranging from 0.01 μg/mL to 5 μg/mL.
(Formazan colour is commonly taken as a measure of viable cells.)

Experiment [2] concerns HepG2 cells. In words: MTT cell viability assay, IC50 in HepG2 cells. It is filed as cell-based. Particulars: Homo sapiens, 24 h, SE less than 10% of value. The method, then:
as §1, §2

Experiment [3] relates to MRC5 cells. In words: MTT cell viability assay, IC50 in MRC5 cells. It is filed as cell-based. The settings on record: Homo sapiens, 24 h, SE less than 10% of value. On the procedure:
as §1, §2

In experiment [4] the test system is HepG2 cells. Briefly: BrdU incorporation (proliferation) assay. The settings on record: HepG2, 1 μM, 24 h. It is filed as cell-based, human. On the procedure:
Cell proliferation was analysed by a BrdU (Roche Diagnostics SpA, Monza, Italy) incorporation assay, as previously described. Briefly, HepG2 cells, seeded at adensity of 3 × 10^3/cm^2 on round glass cover slips, were treated for 24 h with P. tomentosa compounds at 1 μM. Then, BrdU was added to cell medium (final concentration, 100 μM) for 1 h. Cells were fixed (in 3% paraformaldehyde, 10 min), permeabilised (in 0.2% Triton X-100, 5 min) and treated with HCl 1.5 N (5 min). Finally, cover slips were incubated with a monoclonal antibody against BrdU (Sigma-Aldrich, Milan, Italy), 1:100, and with a TRITC-conjugated secondary antibody, 1:100. After staining with Hoechst, cover slips were mounted with Mowiol (Sigma, Milan, Italy). […] Images were acquired with Axiocam MRc5 and processed with ImageJ Launcher. The number of cells into S-phase was expressed as the ratio between the number of cells incorporating BrdU and the total number of cells.
For orientation: Uptake of a labelled nucleoside into DNA is a usual measure of proliferation.

Experiment [5] concerns p53 in HepG2 cells. In words: Western blot analysis of p53 expression. Particulars: HepG2, 1 μM, 24 h. It is filed as cell-based, human. The method, then: (§3) To analyse the protein levels of p53, caspase-3, GRP78, LC3 and p62, HepG2 cells were treated with P. tomentosa compounds (1 or 2 μM) or with DMSO for the indicated times; then, Western blot analyses were performed. Briefly, cells were lysed in RIPA buffer (20 mM Tris-HCl, pH 7.5, 150 mM NaCl, 1 mM EDTA, 1 mM dithiothreitol, 0.1% sodium dodecyl sulphate, 1% triton X-100, 1 mM orthovanadate, and a cocktail of inhibitors (Sigma-Aldrich, Milan, Italy)). After separation on a sodium dodecyl sulphate-polyacrylamide gel electrophoresis and transfer to a poly-vinylidene fluoride membrane (Euroclone, Milan, Italy), the following primary antibodies were used, at a dilution of 1:1000 in tris-buffered saline containing 1% non-fat dry milk, overnight at 4 °C: mouse anti-p53 antibody, mouse anti-MAP LC3 β antibody, mouse anti-p62 antibody (DBA, Milan, Italy), mouse anti-GRP78 antibody, and mouse anti-caspase 3 antibody (Thermo Fisher Scientific, Milan, Italy). For normalisation, a mouse anti-GAPDH antibody (Microtech, Naples, Italy) was used.
In general terms: In western blotting, separated proteins are transferred to a membrane and probed.

The test system of experiment [6] is HepG2 cells. In words: Scratch-wound-healing assay. Format: cell-based, human. The settings on record: HepG2, 1 μM, 24, 48 and 72 h. The method, then: Cells were seeded at a density of 5 × 10^4 cells/well in 24-well plates and allowed to grow for 72 h, reaching confluence. Mitomycin C (10 μg/mL) was added to inhibit proliferation, and then a sterile 2–10 μL pipette tip was used to perform a vertical scratch in the monolayer of each well. Detached cells were removed by washing with phosphate-buffered saline. Then, 300 μL of fresh medium containing P. tomentosa compounds (1 μM) or vehicle was added to each well and incubated for 72 h. Images of migrating cells were taken at 0, 24, 48 and 72 h, by using an Olympus CKX41 fluorescent microscope (Olympus Italia srl, Segrate, Italy) and elaborated by the ImageJ software. For each scratch, wound width was calculated as the average distance between the edges in four different sites. Then, reductions in wound wights at 24, 48 and 72 h were expressed as % of the width at time zero.

The test system of experiment [7] is HepG2 cells. Briefly: Transwell migration assay. Format: cell-based, human. The settings on record: HepG2, 1 μM, 18 h. The method, then:
Transwell filters (coated with collagen) in serum-free media containing 0.1% of BSA, with a PET membrane with 8 μm pores (BD Biosciences, Milan, Italy), were rehydrated for 2 h at 37 °C. HepG2 were seeded in the upper chambers at a density of 75 × 10^3 cells in MEM with 0.1% BSA and treated with or without 1 µM of Pergularia compounds. MEM−0.1%BSA, supplemented with 10% FBS, was added to the lower chamber as chemoattractant. Control wells without 10% FBS were included to assess random migration. After incubation at 37 °C in 5% CO2 for 18 h, the migrated cells were fixed with 4% paraformaldehyde for 5 min, permeabilised with methanol for 20 min and stained with crystal violet 0.5% for 15 min at room temperature. The cells on the lower side of the filter were allowed to dry before counting. Eight separate bright-field images were randomly acquired of each filter using an Olympus CKX41 Image Analyzer. The cells in each image were counted and analysed compared to control-transfected cells.

Experiment [8] deals with caspase-3 in HepG2 cells. In words: Western blot of cleaved caspase-3. It is filed as cell-based, human. Particulars: HepG2, 2 μM, 7 h, Western blot densitometry. On the procedure:
as §3

Experiment [9] concerns LC3 in HepG2 cells. In words: Western blot of LC3 (LC3-I and LC3-II). Format: cell-based, human. Particulars: HepG2, 1 μM, 24 h. The method, then: as §3

Consider `C[C@@H]1C[C@@H](O)[C@]2(O)O[C@@H]3C[C@@]4(C=O)[C@@H](CC[C@@H]5[C@@H]4CC[C@]4(C)[C@@H](C6=CC(=O)OC6)CC[C@]54O)C[C@H]3O[C@@H]2O1` [Compound 5, calactin], for which the IC50 in experiment [1] is 650 nM; in experiment [2], 127 nM; in [3] it was 990 nM. Besides, the “effect on BrdU incorporation / cell cycle progression” value in experiment [4] is recorded as “significantly affected cell cycle progression”. Besides, the p53 protein level result in experiment [5] is listed as “clearly decreased the p53 amount”. Further, in experiment [6], the “effect on wound closure” value was “interfered with the wound closure after 48 and 72 h”. For the same compound, the “effect on transwell migration” value in [7] is “most potent”. In addition, the “cleaved caspase-3 (caspase-3 activation)” value in [8] was “most active”. Also, in [9], the LC3-I level entry is on record as “reduction in the LC3-I form”. The LC3-II level result in experiment [9] is recorded as “more marked”.
